Molecules are shown by their SMILES.

Data set [1] in a line: Example 2: stability of substituted acetamide in mixtures with commercial fungicides, 4 hour assay and 1-4 hour pH range. Conditions: particularly in basic water. It counts as physicochemical. As to the method:
is prepared by blending and hammer milling.
(b) 2-cyano-N-ethylcarbamoyl-2-methoxyiminoacetamide is finely ground.
The materials above are mixed with the following commercial fungicides in a ratio to provide 1 part of active compound of (a) or (b) with the indicated parts of commodity listed:
The mixtures are then added to distilled water in one case and 4.7 × 10^-3 N sodium bicarbonate (chosen to represent rather alkaline water) in the other case, at a rate to provide about 150 ppm of substituted acetamide. After 4 hours, the suspensions are assayed to determine the present substituted acetamide remaining. The pH during the 1-4 hour period is also recorded.

The nature of data set [2]: Example 1: stability of active ingredient at 300 ppm in severe test waters, assay after 4 hours at room temperature. The data set is classed as physicochemical. The note with it: for pH: after 4 hours at room temperature; for assay (as percent of original): 4 hours, room temperature. As to the method: The stability of the active ingredient formulated as above is compared with that of the pure technical material at 300 ppm in:
(a) a basic, soda-ash softened water of initial pH 10.2 with 0.66 × 10^-3 N basicity, primarily as carbonate, and
(b) a strong "sodium bicarbonate" water (prepared to match a Montana well water) with pH 8.8 and 13 × 10^-3 N basicity.
After 4 hours at room temperature in these severe test waters, the following pH readings and assays (as percent of original) were obtained.

Consider `CCNC(=O)NC(=O)C(C#N)=NOC` [pure compound, 2-cyano-N-ethylcarbamoyl-2-methoxyiminoacetamide], for which, in data set [1], the “effect of acidulant on stability in mixtures with commercial fungicides” value is “the acidulant improves stability”. Besides, the pH was 7.7 in data set [2] (water a)) and 8.2 in data set [2] (water b)). Besides, the “assay (as percent of original)” value is 43% of original in data set [2] (water a): soda-ash softened, initial pH 10.2, 0.66 × 10^-3 N basicity) and 16% of original in data set [2] (water b): strong sodium bicarbonate water, pH 8.8, 13 × 10^-3 N basicity).

These data come from US4101669A (priority 1977, dated 1978).
